We go through seven molecules from ChEMBL document CHEMBL1150124, “Steroidal and pregnane glycosides from the rhizomes of Tacca chantrieri” (J Nat Prod, 2002).

The source made the active and inactive calls. No cut-off for these calls is given here.

The subject of the assay is HL-60. Briefly: Cytotoxicity against human HL60 cells at 10 ug/mL. It counts as functional, cell-based.
For the molecule `CC(=O)[C@H]1[C@@H](OC(=O)CC[C@H](C)CO[C@@H]2O[C@H](CO)[C@@H](O)[C@H](O)[C@H]2O)C[C@H]2[C@@H]3CC=C4C[C@@H](O[C@@H]5O[C@H](CO)[C@@H](O)[C@H](O[C@@H]6O[C@@H](C)[C@H](O[C@@H]7O[C@H](CO)[C@@H](O)[C@H](O)[C@H]7O)[C@@H](O)[C@H]6O)[C@H]5O[C@@H]5O[C@@H](C)[C@H](O)[C@@H](O)[C@H]5O)CC[C@]4(C)[C@H]3CC[C@@]21C`, the result was inactive. Turning to `CO[C@]1(CC[C@H](C)CO[C@@H]2O[C@H](CO)[C@@H](O)[C@H](O)[C@H]2O)O[C@H]2C[C@H]3[C@@H]4CC=C5C[C@@H](O[C@@H]6O[C@H](CO)[C@@H](O)[C@H](O[C@@H]7O[C@@H](C)[C@H](O[C@@H]8O[C@H](CO)[C@@H](O)[C@H](O)[C@H]8O)[C@@H](O)[C@H]7O)[C@H]6O[C@@H]6O[C@@H](C)[C@H](O)[C@@H](O)[C@H]6O)CC[C@]5(C)[C@H]4CC[C@]3(C)[C@H]2[C@@H]1C`, the outcome was inactive. With `CO[C@]1(CC[C@H](C)CO[C@@H]2O[C@H](CO[C@@H]3O[C@H](CO)[C@@H](O)[C@H](O)[C@H]3O)[C@@H](O)[C@H](O)[C@H]2O)O[C@H]2C[C@H]3[C@@H]4CC=C5C[C@@H](O[C@@H]6O[C@H](CO)[C@@H](O)[C@H](O[C@@H]7O[C@@H](C)[C@H](O[C@@H]8O[C@H](CO)[C@@H](O)[C@H](O)[C@H]8O)[C@@H](O)[C@H]7O)[C@H]6O[C@@H]6O[C@@H](C)[C@H](O)[C@@H](O)[C@H]6O)CC[C@]5(C)[C@H]4CC[C@]3(C)[C@H]2[C@@H]1C`, the result was inactive. For `CC1=C(CC[C@H](C)CO[C@@H]2O[C@H](CO)[C@@H](O)[C@H](O)[C@H]2O)O[C@H]2C[C@H]3[C@@H]4CC=C5C[C@@H](O[C@@H]6O[C@H](CO)[C@@H](O)[C@H](O[C@@H]7O[C@@H](C)[C@H](O[C@@H]8O[C@H](CO)[C@@H](O)[C@H](O)[C@H]8O)[C@@H](O)[C@H]7O)[C@H]6O[C@@H]6O[C@@H](C)[C@H](O)[C@@H](O)[C@H]6O)CC[C@]5(C)[C@H]4CC[C@]3(C)[C@@H]12`, the outcome was inactive. To `CO[C@]1(CC[C@H](C)CO[C@@H]2O[C@H](CO)[C@@H](O)[C@H](O)[C@H]2O)O[C@H]2C[C@H]3[C@@H]4CC=C5C[C@@H](O[C@@H]6O[C@H](COC(C)=O)[C@@H](O)[C@H](O[C@@H]7O[C@@H](C)[C@H](O[C@@H]8O[C@H](CO)[C@@H](O)[C@H](O)[C@H]8O)[C@@H](O)[C@H]7O)[C@H]6O[C@@H]6O[C@@H](C)[C@H](O)[C@@H](O)[C@H]6O)CC[C@]5(C)[C@H]4CC[C@]3(C)[C@H]2[C@@H]1C` belongs “inactive”; to `CC(=O)C1=CC[C@H]2[C@@H]3CC=C4C[C@@H](O[C@@H]5O[C@H](CO)[C@@H](O)[C@H](O[C@@H]6O[C@@H](C)[C@H](O[C@@H]7O[C@H](CO)[C@@H](O)[C@H](O)[C@H]7O)[C@@H](O)[C@H]6O)[C@H]5O[C@@H]5O[C@@H](C)[C@H](O)[C@@H](O)[C@H]5O)CC[C@]4(C)[C@H]3CC[C@]12C`, “inactive”; to `CC(=O)OC[C@H]1O[C@@H](O[C@H]2CC[C@@]3(C)C(=CC[C@H]4[C@@H]5C[C@@H]6OC(CC[C@H](C)CO[C@@H]7O[C@H](CO)[C@@H](O)[C@H](O)[C@H]7O)=C(C)[C@@H]6[C@@]5(C)CC[C@@H]43)C2)[C@H](O[C@@H]2O[C@@H](C)[C@H](O)[C@@H](O)[C@H]2O)[C@@H](O[C@@H]2O[C@@H](C)[C@H](O[C@@H]3O[C@H](CO)[C@@H](O)[C@H](O)[C@H]3O)[C@@H](O)[C@H]2O)[C@@H]1O`, “inactive”.
